Measurements reported in patent publication US10308631B2, “Selective anti-cancer compounds” (NATIONAL UNIVERSITY OF SINGAPORE, priority 2015, dated 2019).

Assays:
[1] = tested on: caspase-3/7 activity in oncogene-transformed human fibroblast BJ cells; assay: Caspase-3/7 Glo assay; format: cell-based; details: 2.5 and 5 μM, 48 h
Procedure: FIGS. 5B, C provide a representation of an immunoblot analysis to examine the PARP or caspase-3 cleavage (B) and a histogram showing Caspase-3/7 activities, plotted as fold induction compared to DMSO-treated cells (C). BJ normal and transformed cells were treated with Compound 1 (a131) for 48 h. Cells were harvested and total lysates were analysed by detecting cleaved PARP or caspase-3 or caspase-3/7 activities as markers for apoptotic induction. […] Student's t-test was performed to determine the statistical significance (**=p<0.001, ***=p<0.0001, n.s.=no significance).
Whether Compound 1 (a131)-induced cancer cell-lethality was mediated by apoptosis or non-apoptotic programmed cell death was determined. For this purpose, isogenic non-transformed and oncogene-transformed human fibroblast BJ cell lines were cultured in DMEM supplemented with 10% FBS. The cells were treated with Compound 1 (2.5 μM and 5 μM, DMSO). 48 h after treatment, total cell lysates were prepared for immunoblot analysis using antibodies against cleaved PARP and cleaved caspase-3, well-known markers for apoptosis. In addition, a fraction of total cell lysates was also subjected to Caspase-3/7 Glo (Promega) assay to measure the combined activity of caspase 3/7. This was determined using caspase-Glo 3/7 Assay Kit (Promega) and its activity was normalized to a number of viable cells as determined by MTT assay.

[2] = tested on: normal cell lines (panel of five); assay: MTT growth inhibition, mean over normal cell line panel; format: cell-based; details: Homo sapiens, 72 h
Procedure: FIG. 7 is a graphical representation showing that Compound 1 (a131) induces selective cell growth inhibitory effects in a broad spectrum of human cancer cells. A panel of cancer and normal cell lines were treated with Compound 1 (a131) for 72 h and a mean G150 value (the concentration required to achieve 50% growth inhibition) was determined. A Student's t-test indicated a statistically significant difference at p<0.05 (p=0.017) between normal cells and cancer cells treated with Compound 1 (a131). […]
The MTT assay was performed by adding thiazolyl blue tetrazolium bromide (MTT reagent, Invitrogen) at a concentration of 0.5 mg/mL to each cell culture and the resulting mixture incubated for 4 h at 37° C. […] The absorbance of each well at 540 nm and 660 nm was measured using a microplate reader (Benchmark plus, BIO-RAD). The optical density (OD) values were calculated by subtracting the absorbance at 660 nm from the absorbance at 540 nm. […]

[3] = tested on: non-transformed BJ cells depleted of p53 by shRNA-mediated knockdown; assay: BrdU incorporation and FACS analysis (cell cycle arrest), p53 knockdown; format: cell-based, human; details: 2.5 and 5 μM, 24 h
Procedure: A: is output from a FACS analysis of isogenic-non-transformed, without (panels a-c) (WT) or with (panels d-f) shRNA-mediated knockdown of p53 (p53KD), and oncogene-transformed BJ cells (panels g-i), each treated with 0, 5 or 2.5 μM Compound 1 (a131) for 24 h. Cells were doubly stained with PI (horizontal axis) and BrdU (vertical axis). The BrdU-positive population in panels a-c are indicated as arrows. B: is a diagrammatic representation of an immunoblot analysis showing isogenic non-transformed (normal) and oncogene-transformed BJ cells (transformed) treated with Compound 1 (a131) at 0, 2.5 or 5 μM for 24 h or 48 h. Cells were harvested and total lysates were analysed by detecting p53 and p21. Antibodies raised against β-actin were used as an internal loading control. C and D are histograms showing the percentage of bromodeoxyuracil (BrdU)-positive non-transformed (normal) BJ cells. C: Cells were treated with Group 1 Compound 1 (a131) at 2.5 and 5 μM, Compound 23 (b36) at 2.5 and 5 μM, and Compound 21 (b35) at 5 μM, and Group 2 Compound 25 (a166) at 2.5 and 5 μM, for 24 h. Cells were doubly stained with propidium iodide (PI) and BrdU, and subjected to FACS analysis. The BrdU-positive population are plotted as bars. […]

Q: Which caspase-3/7 activity [1] does the source give for `N#C/C(=C\c1cccc2cnccc12)c1c[nH]c2ccccc12` [Compound 1, (Z)-2-(1H-indol-3-yl)-3-(isoquinolin-5-yl)acrylonitrile] here?
A: significant induction of caspase-3/7 activity

Q: What about the GI50 [2] of the same compound?
A: 6.5 µM

Q: And the “cell cycle arrest in p53-depleted cells” value [3]?
A: ability of Compound 1 to induce cell cycle arrest was compromised
